Measured values as given in patent US20260000697A1, “COMBINATION FORMULATION OF CEDAZURIDINE” (Otsuka Pharmaceutical Co., Ltd., priority 2022, published 2026).
Values joined by “and” are separate entries in the source; they are usually repeats but may differ in a detail not shown here. Identical values can stand only once. Like-named read-outs stand apart in the source and are kept apart here.

Columns and labels:
clinical = assay: clinical
Procedure: Blood samples were collected pre-dose, and 0.5, 1, 1.5, 2, 2.5, 3, 3.5, 4, 5, 7, 9 and 24 hours after dosing.

[1] = system: fetal hemoglobin levels (Hb F); details: orally administered (8 mg/kg), repeatedly phlebotomized baboon (PCV less than 20%); cited from earlier work
[2] = 80 mg oral dose, 3 subjects, one value per subject, post-dose; cited from earlier work
[3] = for release at buffer stage from enteric capsule: 50 mM phosphate buffer pH 6.8; for release at buffer stage from enteric capsule / release in acid stage from enteric capsule: Capsule 1 and Capsule 2; for release in acid stage from enteric capsule: 0.1 N HCl, 2 hours
[4] = human, blood, subcutaneous, 60 mg

SMILES	AUC(0-t) (clinical; [4])	Cmax (clinical; [4])	Tmax (clinical; [4])	elevation in fetal hemoglobin levels (Hb F) [1]	Tmax [2]	release at buffer stage from enteric capsule [3]	release in acid stage from enteric capsule [3]	effect of co-administration on azacitidine PK (clinical; 60 mg oral delayed release azacitidine with vs without 60 mg cedazuridine)	stability in dissolution medium ([3]; pH 6.8)
Nc1ncn([C@@H]2O[C@H](CO)[C@@H](O)[C@H]2O)c(=O)n1 [Group 1 (azacitidine, SQ), azacitidine]	761 ng·h/mL	384 ng/mL	0.6 h						
Nc1ncn([C@@H]2O[C@H](CO)C(O)[C@@H]2O)c(=O)n1 (some centres unmarked) [azacitidine]				no elevation	1.5 h and 2.0 h and 1.0 h	rapidly released	slowly released		
O=C1N[C@H](O)CCN1[C@@H]1O[C@H](CO)[C@@H](O)C1(F)F [cedazuridine]						rapidly released	slowly released	increased Tmax, Cmax and AUC for azacitidine	degradation is minimal
